Data as given in the NIST ThermoML archive (doi:10.1016/j.tca.2012.11.008).

Assay: mn = molality of the nth substance listed, in mol/kg
Settings: 101 kPa, Liquid; for speed of sound: Sing-around technique in a fixed-path interferometer; for mass density: Vibrating tube method

NC(CO)(CO)CO.O=C(c1ccccc1)c1ccc2n1CCC2C(=O)O (stereo unspecified) [ketorolac tromethamine] + O
Settings | mass density, 293.15 K [kg/m3] | mass density, 298.15 K [kg/m3] | mass density, 303.15 K [kg/m3] | mass density, 308.15 K [kg/m3] | mass density, 313.15 K [kg/m3] | speed of sound, 293.15 K [m/s] | speed of sound, 298.15 K [m/s] | speed of sound, 303.15 K [m/s] | speed of sound, 308.15 K [m/s] | speed of sound, 313.15 K [m/s]
m1 = 0.01 | 999.38 | 998.2 | 996.79 | 995.17 | 993.34 | 1485.6 | 1499.7 | 1512 | 1522.5 | 1531.5
m1 = 0.02 | 1000.35 | 999.17 | 997.75 | 996.11 | 994.28 | 1486.8 | 1500.7 | 1512.9 | 1523.3 | 1532.2
m1 = 0.03 | 1001.41 | 1000.21 | 998.78 | 997.13 | 995.29 | 1488.7 | 1502.5 | 1514.6 | 1524.9 | 1533.7
m1 = 0.04 | 1002.57 | 1001.23 | 999.83 | 998.13 | 996.22 | 1491 | 1504.7 | 1516.7 | 1527 | 1535.7
m1 = 0.05 | 1003.3 | 1002.07 | 1000.62 | 998.96 | 997.1 | 1492.1 | 1505.7 | 1517.6 | 1527.7 | 1536.3
m1 = 0.075 | 1006.13 | 1004.88 | 1003.4 | 1001.71 | 999.82 | 1497.4 | 1510.7 | 1522.3 | 1532.2 | 1540.5
m1 = 0.1 | 1008.75 | 1007.46 | 1005.95 | 1004.24 | 1002.31 | 1501.5 | 1514.5 | 1525.8 | 1535.5 | 1543.6
m1 = 0.125 | 1011.43 | 1010.1 | 1008.54 | 1006.74 | 1004.79 | 1506 | 1518.8 | 1530 | 1539.4 | 1547.3
m1 = 0.15 | 1014.02 | 1012.67 | 1011.11 | 1009.34 | 1007.39 | 1509.9 | 1522.5 | 1533.4 | 1542.7 | 1550.4
m1 = 0.175 | 1016.56 | 1015.19 | 1013.63 | 1011.84 | 1009.86 | 1514.6 | 1527.1 | 1538 | 1547.2 | 1554.6
m1 = 0.2 | 1019.22 | 1017.8 | 1016.15 | 1014.32 | 1012.32 | 1518.9 | 1531.4 | 1542.3 | 1550.8 | 1558.1
m1 = 0.25 | 1024.63 | 1023.16 | 1021.49 | 1019.63 | 1017.59 | 1525.6 | 1537.4 | 1547.6 | 1556 | 1563

O [water] + NC(CO)(CO)CO.O=C(c1ccccc1)c1ccc2n1CCC2C(=O)O
Settings | speed of sound [m/s]
313.15 K, m2 = 0 | 1529.1
